Reference: PubChem BioAssay AID1596 (NINDS Approved Drug Screening Program, 2009)
Inconclusive results are not listed.

Test system: PC12 polyQ huntingtin toxicity, LDH release
Experiment: protection from polyQ Htt cytotoxicity, dose response, PC12 cells, LDH release, LDH100 (AID 1596)

Compound	EC50 [µM]
CC(C)CC1C(=O)N2CCC[C@H]2C2(O)O[C@](NC(=O)C3C=C4c5cccc6[nH]c(Br)c(c56)C[C@H]4N(C)C3)(C(C)C)C(=O)N12 (stereo partly specified)	30
O=C(O)c1cc2cc(Cc3cccnc3)ccc2o1	20
C[C@@]1(C(=O)O)CC[C@]2(C)CC[C@]3(C)C4=CC=C5C=C(O)C(=O)C=C5[C@]4(C)CC[C@@]3(C)[C@@H]2C1	0.5
CN(C)CCOC(c1ccc(Cl)cc1)c1ccccn1 (stereo unspecified)	1.5
CC(=O)Oc1ccc(Cl)c2cccnc12	8
C[N+](C)(C)CCOC(N)=O	1
CC(NCCC(c1ccccc1)c1ccccc1)c1ccccc1 (stereo unspecified)	10
NC(=O)N/N=C/c1ccc([N+](=O)[O-])o1	20
O=C(Nc1ccc([N+](=O)[O-])cc1Cl)c1cc(Cl)ccc1O	1
CC1(C)O[C@@H]2CC3C4C[C@H](F)C5=CC(=O)C=CC5(C)C4C(O)CC3(C)[C@]2(C(=O)CO)O1 (stereo partly specified)	100
CC[C@H]1OC(=O)[C@H](C)[C@@H](O[C@H]2C[C@@](C)(OC)[C@@H](O)[C@H](C)O2)[C@H](C)[C@@H](O[C@@H]2O[C@H](C)C[C@H](N(C)C)[C@H]2O)[C@](C)(O)C[C@@H](C)CN(C)[C@H](C)[C@@H](O)[C@]1(C)O	100
CNC(=O)Oc1ccc2c(c1)[C@]1(C)CCN(C)[C@@H]1N2C	100
Cc1cc(C2CCCCC2)n(O)c(=O)c1	2.5
C=C[C@H]1CN2CC[C@H]1C[C@@H]2[C@H](O)c1ccnc2ccccc12	60
COc1cc2ccc(=O)oc2cc1O	30
O=NN(CCCl)C(=O)NCCCl	4
CCOc1ccc2c(c1)C(C)=CC(C)(C)N2	8
Oc1c(Cl)cc(Cl)c(Cl)c1Cc1c(O)c(Cl)cc(Cl)c1Cl	10
Oc1cccc2cccnc12	20
CN[C@@H]1[C@H](OC2[C@H](O[C@H]3[C@H](O)[C@@H](O)[C@H](N=C(N)N)[C@@H](O)[C@@H]3N=C(N)N)O[C@@H](C)[C@]2(O)C=O)O[C@@H](CO)[C@H](O)[C@H]1O (stereo partly specified)	100
Nc1c2c(nc3ccccc13)CCCC2	60
CC(=O)c1c(O)c(C)c(O)c2c1OC1=CC(=O)C(C(C)=O)C(=O)C12C (stereo unspecified)	60

Compound	EC50 [µM]
CN(C)[C@@H]1C(=O)C(C(N)=O)=C(O)[C@@]2(O)C(=O)C3=C(O)c4c(O)cccc4[C@@](C)(O)[C@H]3[C@H](O)[C@@H]12	100
C[C@H]1c2cccc(O)c2C(O)=C2C(=O)[C@]3(O)C(O)=C(C(N)=O)C(=O)[C@@H](N(C)C)[C@@H]3[C@@H](O)[C@@H]21	60
CCCCC[C@H](CC(=O)NO)C(=O)N[C@H](C(=O)N1CCC[C@H]1CO)C(C)C	100
C=C1C(=O)OC2C1CCC1(C)CCC=C(C)C21 (stereo unspecified)	4
CCN(CC)CCNc1ccc(CO)c2sc3ccccc3c(=O)c12	4
CCCCCc1cc(O)c2c(c1)OC(C)(C)C1CC=C(C)CC21 (stereo unspecified)	40
O=c1c2ccccc2[se]n1-c1ccccc1	6
COc1ccc(C[C@H](N)C(=O)N[C@@H]2[C@@H](CO)OC(n3cnc4c(N(C)C)ncnc43)[C@@H]2O)cc1 (stereo partly specified)	10
CC(=O)Nc1ccc(S(=O)(=O)Nc2ccc([N+](=O)[O-])cc2)cc1	20
CC(C)=CCC1=C(O)c2ccccc2C(=O)C1=O	100
Cc1ccc(C(=O)C(C)CN2CCCCC2)cc1 (stereo unspecified)	6
CC[n+]1c(-c2ccccc2)c2cc(N)ccc2c2ccc(N)cc21	4
COC12CC[C@@]3(C[C@@H]1C(C)(O)C(C)(C)C)[C@H]1Cc4ccc(O)c5c4[C@@]3(CCN1CC1CC1)[C@H]2O5 (stereo partly specified)	100
CCCCCc1cc(O)c2c(c1)OC(C)(C)c1ccc(C)cc1-2	40
CCCCCCCCCCCCCCCCCC(=O)OC(CC(=O)O)C[N+](C)(C)C (stereo unspecified)	100
O=C1C=CC(=C(c2ccc(O)cc2)c2ccc(O)cc2)C=C1	6
Nc1c(Br)cc(Br)cc1CNC1CCC(O)CC1 (stereo unspecified)	100
CC(C)(C)c1ccc(C(O)CCCN2CCC(C(O)(c3ccccc3)c3ccccc3)CC2)cc1 (stereo unspecified)	8
CCCCC(=O)OC1(C(=O)CO)C(C)CC2C3CCC4=CC(=O)C=CC4(C)[C@@]3(F)[C@@H](O)CC21C (stereo partly specified)	60
C[C@@H]1C[C@@H]([C@H](O)CC2CC(=O)NC(=O)C2)C(=O)[C@@H](C)C1	0.2
OCCN1CCN(CCCN2c3ccccc3Sc3ccc(Cl)cc32)CC1	100
O=C1C=C2C(=CCOC2O)O1 (stereo unspecified)	1

Compound	EC50 [µM]
CO/N=C(/C(=O)N[C@@H]1C(=O)N2C(C(=O)O)=C(COC(C)=O)CS[C@H]12)c1csc(N)n1	6
CN1CCc2cccc3c2C1Cc1ccc(O)c(O)c1-3 (stereo unspecified)	10
COc1ccc(-c2coc3cc(O)cc(O)c3c2=O)cc1	60
O=C(c1ccccc1)c1ccc2n1CCC2C(=O)O (stereo unspecified)	8
CNc1ccc2oc(C[C@@H]3OC4(CC[C@@H]3C)O[C@H](C(C)C(=O)c3ccc[nH]3)[C@H](C)C[C@H]4C)nc2c1C(=O)O (stereo partly specified)	0.8
CN(C)c1ccc(C(=C2C=CC(=[N+](C)C)C=C2)c2ccc(N(C)C)cc2)cc1	0.2
CC(Cc1ccc(O)c(O)c1)C(C)Cc1ccc(O)c(O)c1 (stereo unspecified)	8
CC[C@@]1(O)C[C@H](OC2CC(N(C)C)C(OC3CC(O)C(OC4CCC(=O)C(C)O4)C(C)O3)C(C)O2)c2c(cc3c(c2O)C(=O)c2c(O)cccc2C3=O)[C@H]1C(=O)OC (stereo partly specified)	4
CO[C@@]12[C@@H]3NC3CN1C1=C(C(=O)C(N)=C(C)C1=O)[C@@H]2COC(N)=O (stereo partly specified)	2.5
CO[C@@H]1C[C@@H](C[C@H]2CC[C@H](C)[C@H]([C@@H](C)C(=O)O)O2)O[C@]2(O[C@](C)([C@H]3CC[C@@](C)(C4O[C@@H](C5O[C@@](O)(CO)[C@H](C)C[C@@H]5C)C[C@@H]4C)O3)C[C@H]2C)[C@@H]1C (stereo partly specified)	4
Oc1c(Cl)cc(Cl)cc1Sc1cc(Cl)cc(Cl)c1O	20
CC(NC(=O)C(NC(=O)OCc1ccccc1)C(C)C)C(=O)NC(CC(=O)O)C(=O)OC(F)F (stereo unspecified)	20
O=c1cc(-c2ccc(O)cc2)oc2cc(O)cc(O)c12	40
CC(C)C(=O)Nc1ccc([N+](=O)[O-])c(C(F)(F)F)c1	4
OCC(S)CS (stereo unspecified)	10
O=c1[nH]c2ccccc2n1C1CCN(CCCC(c2ccc(F)cc2)c2ccc(F)cc2)CC1	30
CCCCCc1cc(O)c2c(c1)OC(C)(C)C1CCC(C)=CC21 (stereo unspecified)	60
CN1CCc2c(c3ccccc3n2Cc2ccccc2)C1	30
NCCCCNCCCN	8
CC(=O)OCC(=O)[C@@]1(O)[C@H](C)CC2C3CCC4=CC(=O)C=C[C@]4(C)[C@@]3(F)[C@@H](O)C[C@@]21C (stereo partly specified)	0.8
CC(C)=CCCC1(C)C=Cc2c(O)c3c(c(CC=C(C)C)c2O1)OC12C(=CC4CC1C(C)(C)OC2(C/C=C(/C)C(=O)O)C4=O)C3=O (stereo unspecified)	0.3
NC(=NCc1ccccc1)NC(=O)c1nc(Cl)c(N)nc1N	100
